Test results reported in patent US10131652B2, “Pyrimidinyloxy benzene derivatives as herbicides” (E. I. DU PONT DE NEMOURS AND COMPANY, priority 2014, dated 2018).

Key:
Assay type in all cases: in vivo
[1] = tested on: blackgrass (Alopecurus myosuroides); assay: Test B postemergence plant response
Summary of the method: (§1)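 Visual injury rating, 0–100 (0 = no effect, 100 = complete control), vs untreated controls ~10 days after postemergence spray; greenhouse; potted loam soil/sand; plants 2–10 cm, 1–2 leaf stage.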

[2] = tested on: galium (catchweed bedstraw, Galium aparine); assay: Test B postemergence plant response
Summary of the method: as §1

[3] = tested on: waterhemp_RES2 (ALS & HPPD resistant common waterhemp, Amaranthus rudis); assay: Test F postemergence plant response; settings: scale 0 to 100
Protocol: (§2) At the same time, plants from these crop and weed species and also waterhemp_RES1, (ALS & Triazine resistant common waterhemp, Amaranthus rudis), and waterhemp_RES2, (ALS & HPPD resistant common waterhemp, Amaranthus rudis) were treated with postemergence applications of test chemicals formulated in the same manner. Plants ranged in height from 2 to 18 cm for postemergence treatments (1- to 4-leaf stage).
(§3) Treated plants and controls were maintained in a greenhouse for 14 to 21 days, after which time all species were compared to controls and visually evaluated. Plant response ratings, summarized in Table F, are based on a scale of 0 to 100 where 0 is no effect and 100 is complete control. A dash (-) response means no test result.

[4] = tested on: waterhemp_RES1 (ALS & Triazine resistant common waterhemp, Amaranthus rudis); assay: Test F postemergence plant response; settings: scale 0 to 100
Protocol: as §2, §3

kochia (Kochia scoparia) = assay: Test D postemergence plant response; settings: for Plant response rating (scale 0 to 100), Kochia: 16 g ai/ha
Summary of the method: (§4)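 Visual scoring from 0 (no effect) to 100 (complete control), relative to controls, 13–15 days after treatment in the greenhouse. Compounds were applied postemergence at the 1- to 4-leaf stage (2–18 cm) to potted plants in peat-based medium.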

[5] = tested on: chickweed (common chickweed, Stellaria media); assay: Test D postemergence plant response
Summary of the method: as §4

wild oat (Avena fatua) = assay: Test D postemergence plant response; settings: for Plant response rating (scale 0 to 100), Oat, Wild: 16 g ai/ha
Summary of the method: as §4

[6] = 125 g ai/ha, postemergence, 0 to 100 scale, 0 no effect, 100 complete control
[7] = Postemergence, 31 g ai/ha, 0 to 100 scale (0 no effect, 100 complete control)
[8] = 31 g ai/ha, scale 0 to 100 (0 no effect, 100 complete control)
[9] = 62 g ai/ha, scale 0 to 100, 0 no effect, 100 complete control
[10] = 125 g ai/ha, scale 0 to 100, 0 no effect, 100 complete control
[11] = Postemergence, 500 g ai/ha, 0 to 100 scale (0 no effect, 100 complete control)

Row | SMILES | Plant response rating, Blackgrass [1, 6] | Plant response rating, Blackgrass [1, 7] | Plant response rating, Galium [2, 6] | Plant response rating, Galium [2, 7] | Plant response rating, Waterhemp_RES2 ([3]; 16 g ai/ha Postemergence) | Plant response rating, Waterhemp_RES2 ([3]; 31 g ai/ha Postemergence) | Plant response rating, Waterhemp_RES2 ([3]; 62 g ai/ha Postemergence) | Plant response rating, Waterhemp_RES2 ([3]; 125 g ai/ha Postemergence) | Plant response rating, Waterhemp_RES1 ([4]; 16 g ai/ha Postemergence) | Plant response rating, Waterhemp_RES1 ([4]; 31 g ai/ha Postemergence) | Plant response rating, Waterhemp_RES1 ([4]; 62 g ai/ha Postemergence) | Plant response rating, Waterhemp_RES1 ([4]; 125 g ai/ha Postemergence) | Kochia plant response rating (kochia (Kochia scoparia); [8]) | Plant response rating, Kochia (kochia (Kochia scoparia); [9]) | Plant response rating, Kochia (kochia (Kochia scoparia); [10]) | Chickweed plant response rating [5, 8] | Plant response rating, Chickweed [5, 9] | Plant response rating, Chickweed [5, 10] | Oat, Wild plant response rating (wild oat (Avena fatua); [8]) | Plant response rating, Oat, Wild (wild oat (Avena fatua); [10]) | further results
1 | Fc1cccc(Oc2ncc(Br)cn2)c1-c1cc(C(F)F)no1 [Compound 145, 5-bromo-2-[2-[3-(difluoromethyl)-5-isoxazolyl]-3-fluorophenoxy]pyrimidine] | 90 | 70 | 100 | 100 | 95 | 90 | 100 | 100 | 95 | 98 | 100 | 100 |  |  |  |  |  |  |  |  | pest or weed control at 31 g/ha (kochia (Kochia scoparia); Bassia scoparia, post-emergence, 31 g ai/ha, scale 0 to 100 (0 no effect, 100 complete control), read-out: Kochia plant response rating): 100%; pest or weed control at 62 g/ha (kochia (Kochia scoparia); Bassia scoparia, post-emergence, 62 g ai/ha, scale 0 to 100, 0 no effect, 100 complete control, read-out: Plant response rating, Kochia): 100%; pest or weed control at 125 g/ha (kochia (Kochia scoparia); Bassia scoparia, post-emergence, 125 g ai/ha, scale 0 to 100, 0 no effect, 100 complete control, read-out: Plant response rating, Kochia): 100%; pest or weed control at 16 g/ha ([5]; Stellaria media, post-emergence, 16 g ai/ha, scale 0 to 100 (0 no effect, 100 complete control), read-out: Chickweed plant response rating): 70%; pest or weed control at 31 g/ha ([5]; Stellaria media, post-emergence, 31 g ai/ha, scale 0 to 100 (0 no effect, 100 complete control), read-out: Chickweed plant response rating): 80%; pest or weed control at 62 g/ha ([5]; Stellaria media, post-emergence, 62 g ai/ha, scale 0 to 100, 0 no effect, 100 complete control, read-out: Plant response rating, Chickweed): 95%; pest or weed control at 125 g/ha ([5]; Stellaria media, post-emergence, 125 g ai/ha, scale 0 to 100, 0 no effect, 100 complete control, read-out: Plant response rating, Chickweed): 100%; pest or weed control at 31 g/ha (wild oat (Avena fatua); Avena fatua, post-emergence, 31 g ai/ha, scale 0 to 100 (0 no effect, 100 complete control), read-out: Oat, Wild plant response rating): 10%; pest or weed control at 62 g/ha (wild oat (Avena fatua); Avena fatua, post-emergence, 62 g ai/ha, scale 0 to 100, 0 no effect, 100 complete control, read-out: Plant response rating, Oat, Wild): 15%; pest or weed control at 125 g/ha (wild oat (Avena fatua); Avena fatua, post-emergence, 125 g ai/ha, scale 0 to 100, 0 no effect, 100 complete control, read-out: Plant response rating, Oat, Wild): 15%
2 | CC(F)(F)c1cc(-c2ccccc2Oc2ncc(Br)cn2)no1 [Compound 149] | 60 | 10 | 90 | 90 | 95 | 95 | 100 | 100 | 80 | 85 | 90 | 100 | 90 | 100 | 100 | 30 | 30 | 60 | 0 | 5 | Chickweed plant response rating ([5]; 16 g ai/ha, scale 0 to 100 (0 no effect, 100 complete control)): 5; Plant response rating, Oat, Wild (wild oat (Avena fatua); [9]): 0
3 | FC(F)c1cc(-c2c(Cl)cccc2Oc2ncc(Cl)cn2)no1 [Compound 179] | 80 |  | 100 |  | 95 | 100 | 100 | 100 | 90 | 90 | 100 | 100 | 100 | 100 | 100 | 80 | 95 | 95 | 5 | 20 | Plant response rating, Blackgrass [1, 11]: 100; Plant response rating, Galium [2, 11]: 100; Plant response rating (scale 0 to 100), Kochia (kochia (Kochia scoparia)): 90; Plant response rating (scale 0 to 100), Chickweed ([5]; 16 g ai/ha): 70; Plant response rating (scale 0 to 100), Oat, Wild (wild oat (Avena fatua)): 0; Oat, Wild plant response rating (wild oat (Avena fatua); [9]): 15
4 | FC(F)c1cc(-c2ccccc2Oc2ncc(Br)cn2)on1 [Compound 212] | 50 | 10 | 100 | 60 | 70 | 95 | 98 | 100 | 70 | 80 | 95 | 98 | 100 | 100 | 100 | 30 | 30 | 80 | 0 | 10 | Plant response rating (scale 0 to 100), Kochia (kochia (Kochia scoparia)): 90; Plant response rating (scale 0 to 100), Chickweed ([5]; 16 g ai/ha): 10; Plant response rating (scale 0 to 100), Oat, Wild (wild oat (Avena fatua)): 0; Oat, Wild plant response rating (wild oat (Avena fatua); [9]): 5
5 | Fc1ccc(Oc2ncc(Cl)cn2)c(-c2cc(C(F)(Cl)Cl)on2)c1 [Compound 221] | 60 | 30 | 100 | 90 | 90 | 98 | 95 | 100 | 85 | 95 | 100 | 98 | 100 | 100 | 100 | 85 | 80 | 100 | 10 | 35 | Plant response rating (scale 0 to 100), Kochia (kochia (Kochia scoparia)): 98; Plant response rating (scale 0 to 100), Chickweed ([5]; 16 g ai/ha): 75; Plant response rating (scale 0 to 100), Oat, Wild (wild oat (Avena fatua)): 5; Oat, Wild plant response rating (wild oat (Avena fatua); [9]): 10
